{"source": "patent US20210113540A1", "about": "“TREATMENT AGENT AND PHARMACEUTICAL COMPOSITION FOR GLIOMA” (NATIONAL UNIVERSITY CORPORATION HOKKAIDO UNIVERSITY, priority 2018, published 2021)", "key": {"E16 cells": {"system": "E16 cells", "experiment": "Quantitative determination of metabolites by LC-MS/MS in E16 cells", "assay_type": "cell-based, human", "design": "dose or concentration left out as unconfirmed", "settings": "24 hours", "protocol": "Compound 8 was added to GICs (E6, E16) at […] and treated for 24 hours. Cells were washed with a 5% mannitol solution, 70% ice-cold methanol was added, and metabolites were extracted. […] In addition, the amount of orotic acid was decreased in E16 cells."}, "GICs": {"system": "GICs", "experiment": "Neutralization of GIC-damaging activity by addition of UDP-GlcNAc", "assay_type": "cell-based, human", "settings": "UDP-GlcNAc added after the chemical, FIG. 4", "protocol": "When UDP-GlcNAc was added after the chemical was added to GIC, reduced SOX2 expression in GICs and the cytotoxic activity of Compound 8 on GICs were neutralized (FIGS. 3 and 4). SOX2 K75A in which lysine 75 involved in the binding of CRM1 and SOX2 was substituted with alanine and SOX2 S248A in which the 0-GlcNAcylation target serine 248 was substituted with alanine were prepared, thereby establishing GICs that constitutively express these SOX2 mutants and wild-type SOX2 (SOX2 wt). After treatment with Compound 8, the localization of SOX2 was examined by immunostaining using an anti-FLAG antibody, and the viability of GICs expressing these mutants was examined by MTT assay (FIG. 5). In the presence of Compound 8, SOX2 K75A was present in the nucleus and partially neutralized the cytotoxic activity of Compound 8. SOX2 S248A was not retained in the nucleus by treatment with Compound 8, and no inhibitory effect on cytotoxic activity was observed. […] The SOX2/DAPI positive rate was as follows: GIC (E6): Control: 0%, SOX2 wt: 36±5%, SOX2 K75A: 63±5%, SOX2 S248A: 18±2%; GIC (E16): Control: 0%, SOX2 wt: 22±4%, SOX2 K75A: 58±6%, SOX2 S248A: 15±3%. Error bar: ±SD. Statistical processing is t-test. *P<0.05, **P<0.01, ***P<0.001. GIC was cultured for 2 days with Compound 8 (10 μmol/L) alone or together with UDP-GlcNAc (1 mmol/L), and immunostaining was performed for SOX2 and NESTIN. […]"}, "recombinant human DHODH": {"target": "T1, recombinant human DHODH (Homo sapiens, UniProt Q02127)", "T1 construct": "DHODH, 31-395aa, Human, His tag, E. coli, ATGP1615; His tag; purchased ATGen ATGP1615; host or cells: E. coli", "T1 sequence (Q02127 31-395)": "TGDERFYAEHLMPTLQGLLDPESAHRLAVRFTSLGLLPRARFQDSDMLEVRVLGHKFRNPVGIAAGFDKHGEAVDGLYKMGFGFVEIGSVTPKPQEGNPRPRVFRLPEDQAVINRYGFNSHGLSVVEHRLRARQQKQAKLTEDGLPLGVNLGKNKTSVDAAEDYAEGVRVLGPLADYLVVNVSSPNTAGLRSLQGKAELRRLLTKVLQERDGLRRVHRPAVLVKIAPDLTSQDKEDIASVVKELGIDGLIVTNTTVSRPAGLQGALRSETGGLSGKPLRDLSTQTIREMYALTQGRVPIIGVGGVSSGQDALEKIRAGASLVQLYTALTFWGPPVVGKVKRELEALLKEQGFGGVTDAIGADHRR", "experiment": "DHODH enzyme assay (DCIP quenching)", "assay_type": "biochemical", "settings": "pH 8.0, DCIP absorbance 600 nm, 50 minutes; read-out: DHODH enzyme inhibition IC50", "protocol": "For DHODH enzyme assay, “Benjamin Bader, Wolfgang Knecht, Markus Fries, and Monika Löffler. Expression, Purification, and Characterization of Histidine-Tagged Rat and Human Flavoenzyme Dihydroorotate Dehydrogenase. Protein Expression and Purification, 1998, 13, 414-422” was referred to.\nDHODH activity was evaluated using an enzyme assay system that couples with an assay in a blue-coloring dye 2,6-dichlorophenol indophenol (DCIP, MP BIOMEDICALS, MP150118) quenching assay. Purified recombinant human DHODH (DHODH, 31-395aa, Human, His tag, E. coli, ATGP1615) was purchased from ATGen. […] Enzyme activity was assessed by measuring the decrease in DCIP absorbance (600 nm) for 50 minutes using an Envision plate-reading spectrophotometer (PerkinElmer Co., Ltd.). […]\nEnzyme reaction inhibition rate (%)=(Amount of luminescence from wells supplemented with test compound)/(Amount of luminescence from wells supplemented with DMSO)×100"}, "[1]": {"system": "Temozolomide-resistant E6 (E6R)", "experiment": "Xenograft model, subcutaneous E6R in NOD/SCID mice", "assay_type": "in vivo", "protocol": "Temozolomide-resistant E6 (E6R, 1×10^6) was subcutaneously transplanted into NOD/SCID mice (n=6), and Compound 8 (1.0 mg/kg) was orally administered for 11 consecutive days after the long diameter and short diameter of tumor became 5 to 6 mm. […] The size of tumor was calculated as (long diameter)×(short diameter)^2/2. Tumors were excised from Compound 8 treated mice and control mice on Day 12 from the start of oral administration of Compound 8 and fixed with 4% paraformaldehyde, followed by preparation of frozen sections. As a result, tumor cell aggregates disappeared by treatment with Compound 8."}, "SOX2 in GICs (E6)": {"system": "SOX2 in GICs (E6)", "experiment": "SOX2 immunostaining, SOX2/DAPI positive rate in GICs (E6)", "assay_type": "cell-based, human", "protocol": "The extranuclear elimination of compound 8-dependent SOX2 is dependent on the extranuclear transport factor, Exportin (also known as CRM1). The cells were cultured for one day in the presence of Compound 8 (10 μM) and a CRM1-specific inhibitor leptomycin B (LMB, 150 nM), and GICs were immunostained with the SOX2 antibody. As a result, the SOX2/DAPI positive rate in GICs (E6) was as follows: Control: 95±2%, supplemented with Compound 8: 7±3%, supplemented with Compound 8+LMB: 87±9%; the SOX2/DAPI positive rate in GICs (E16) was as follows: Control: 72±11%, supplemented with compound 8: 0.5±1%, supplemented with Compound 8+LMB: 81±10%. The addition of LMB suppressed Compound 8-dependent extranuclear elimination of SOX2.\nWhen UDP-GlcNAc was added after the chemical was added to GIC, reduced SOX2 expression in GICs and the cytotoxic activity of Compound 8 on GICs were neutralized (FIGS. 3 and 4). SOX2 K75A in which lysine 75 involved in the binding of CRM1 and SOX2 was substituted with alanine and SOX2 S248A in which the 0-GlcNAcylation target serine 248 was substituted with alanine were prepared, thereby establishing GICs that constitutively express these SOX2 mutants and wild-type SOX2 (SOX2 wt). After treatment with Compound 8, the localization of SOX2 was examined by immunostaining using an anti-FLAG antibody, and the viability of GICs expressing these mutants was examined by MTT assay (FIG. 5). In the presence of Compound 8, SOX2 K75A was present in the nucleus and partially neutralized the cytotoxic activity of Compound 8. SOX2 S248A was not retained in the nucleus by treatment with Compound 8, and no inhibitory effect on cytotoxic activity was observed. […] The SOX2/DAPI positive rate was as follows: GIC (E6): Control: 0%, SOX2 wt: 36±5%, SOX2 K75A: 63±5%, SOX2 S248A: 18±2%; GIC (E16): Control: 0%, SOX2 wt: 22±4%, SOX2 K75A: 58±6%, SOX2 S248A: 15±3%. Error bar: ±SD. Statistical processing is t-test. *P<0.05, **P<0.01, ***P<0.001. GIC was cultured for 2 days with Compound 8 (10 μmol/L) alone or together with UDP-GlcNAc (1 mmol/L), and immunostaining was performed for SOX2 and NESTIN. As a result, the addition of UDP-GlcNAc suppressed Compound 8-dependent extranuclear elimination of SOX2.\nOSMI-1, which is an O-GlcNAc transferase (OGT)-specific inhibitor, suppresses GIC growth and SOX2 expression. (A) GICs were cultured for 3 days in the presence of various concentrations of OSMI-1, and cell growth was examined using MTT assay (FIG. 6). (B) The results of immunostaining for SOX2 and NESTIN using GICs cultured for 2 days in the presence of 20 μmol/L OSMI-1 and calculating the SOX2 positive rate (SOX2/DAPI) are shown below."}, "[2]": {"settings": "1.0 mg/kg orally, tumors excised on Day 12"}, "[3]": {"settings": "after treatment with Compound 8, anti-FLAG immunostaining"}}}
{"smiles": "O=C(O)c1cc(C2CC2)cnc1Nc1ccc2c(ccn2-c2ccccc2)c1", "note": "[Compound 8, 5-cyclopropyl-2-((1-phenyl-1H-indole-5-yl)amino)nicotinic acid]", "values": [{"measurement": "amount of orotic acid in E16 cells", "setting": "E16 cells", "result": "decreased"}, {"measurement": "increase of the amount of DHO in E16 cells", "setting": "E16 cells; compared to control DMSO-treated group", "result": 125, "unit": "fold"}, {"measurement": "cytotoxic activity of Compound 8 on GICs when UDP-GlcNAc was added", "setting": "GICs", "result": "neutralized"}, {"measurement": "IC50", "setting": "recombinant human DHODH", "result": 8.96, "unit": "nM"}, {"measurement": "tumor growth (size of tumor)", "setting": "[1]; 1.0 mg/kg orally for 11 consecutive days, FIG. 2", "result": "reduced tumor growth"}, {"measurement": "SOX2 in the mouse tumor tissue", "setting": "[1]; [2]", "result": "disappearance of SOX2"}, {"measurement": "tumor cell aggregates in excised tumor sections", "setting": "[1]; [2]", "result": "disappeared"}, {"measurement": "SOX2/DAPI positive rate in GICs (E6)", "setting": "SOX2 in GICs (E6); Compound 8 10 μM, LMB 150 nM where added, cultured one day, control 95±2%", "result": "7±3", "unit": "%"}, {"measurement": "SOX2/DAPI positive rate, GIC (E6) expressing SOX2 K75A", "setting": "SOX2 in GICs (E6); [3]", "result": "63±5", "unit": "%"}, {"measurement": "SOX2/DAPI positive rate, GIC (E6) expressing SOX2 S248A", "setting": "SOX2 in GICs (E6); [3]", "result": "18±2", "unit": "%"}, {"measurement": "SOX2/DAPI positive rate, GIC (E6) expressing SOX2 wt", "setting": "SOX2 in GICs (E6); [3]", "result": "36±5", "unit": "%"}]}
